Assay results: ChEMBL document CHEMBL4340568, “Synthesis of distal and proximal fleximer base analogues and evaluation in the nucleocapsid protein of HIV-1” (Bioorg Med Chem, 2019)
Active and inactive are the calls of the source. No cut-off for these calls is given here.

Tests used:
[1] = test system: Human immunodeficiency virus 1; test: Binding affinity to HIV1 Nucleocapsid protein expressed in Escherichia coli BL21(DE3) pLysE at 1:1 ratio of compound/protein by 1H NMR spectroscopy
[2] = test system: Human immunodeficiency virus 1; test: Antiviral activity against HIV1; assay type: functional, organism-based

| SMILES | Activity [1] | Activity [2] |
| --- | --- | --- |
| Nc1nc(-c2c[nH]cn2)cc(=O)[nH]1 | Active | inactive |
| Nc1nc(-c2cc(=O)[nH]c(N)n2)cc(=O)[nH]1 | – | inactive |
| Nc1ncc(-c2c[nH]cn2)c(=O)[nH]1 | – | inactive |
| Nc1ncc(-c2cnc(N)[nH]c2=O)c(=O)[nH]1 | – | inactive |
